What was measured:
[1] = tested on: CD45-negative, TER-119-negative, and PDGFRβ-positive cells; test: Phase I clinical study, cells in circulating blood; assay type: in vivo; details: human, intravenous administration; peripheral blood mononuclear cell fractions before, 8 h and 24 h after administration; FIG. 33
Description: Since PDGFRβ is a marker of human mesenchymal stem cells, it is believed that a marker (including a combination of multiple markers) defining iCFPα cells and vertebral CFPα cells in peripheral blood described herein, in which the term “PDGFRα” is replaced with the term “PDGFRβ”, will also be a marker (including a combination of multiple markers) defining EMSC (colony-forming PDGFR-positive cells in peripheral blood or in vertebra) in humans.

[2] = tested on: Pα^+ and Prx1^lin− cells in the skin graft; test: Parabiosis model (Pα-H2B-GFP::Prx1-Cre::Rosa26-tdTomato / wild-type) with wild-type neonate skin graft; assay type: in vivo, mouse; details: peptide given to the reporter partner, neonate skin grafted on back of the wild-type partner; FIG. 26
Description: (§1) A parabiosis model was created using a 6-week old male wild-type mouse and a 6-week old male cell lineage tracing mouse with reference to Kamran P et al. J Vis Exp. 2013 Oct. 6; (80). Two mice were simultaneously subjected to general anesthetic induction with isoflurane, and positioned on a heat pad. The body side surfaces opposite to each other of the two mice were shaved, and the skin was removed approximately 5 mm wide from the elbow joint to the knee joint. The dorsal skin was continuously sutured with 5-0 VICRYL. The elbow joints and knee joints each opposite to each other were sutured with 3-0 VICRYL. The abdominal skin was also continuously sutured with 5-0 VICRYL. The mice were left on the heat pad until awakened from anesthesia. To avoid restricting activity, up to one pair were raised per cage, and scattered food was offered.
(§2) The present inventors have previously identified a peptide (HA1-44 peptide) consisting of the amino acid sequence of positions 1-44 (SEQ ID NO: 1) at the N-terminus of HMGB1 protein as a domain having the activity of mobilizing bone marrow-derived Pα-positive mesenchymal stem cells into peripheral blood. […] Furthermore, a cartilage injury was created to the knee joint of a wild-type mouse alone that was not a parabiosis model, then the HA1-44 peptide or saline was administered.

[3] = tested on: P0^lin+ cells at the cartilage injury site; test: Parabiosis (P0-Cre::Rosa26-tdTomato / wild-type) and knee cartilage defect model; assay type: in vivo, mouse; details: 100 μg via tail vein, twice a week until 4 weeks; knee joint collected at 12 weeks; versus saline (no accumulation); FIG. 27
Description: as §1
A parabiosis model was created using a 6-week old male wild-type mouse and a 6-week old male P0-Cre::Rosa26-tdTomato mouse using the method described in 3. above. After completion of the blood chimera at 4 weeks after operation, a 0.5×0.5×0.5 mm cartilage defect was created in the knee joint of the wild-type mouse using a 0.5 mm-diameter hand-turned drill (manufactured by MEISINGER USA, L.L.C.). […] It was sliced at a thickness of 10 μm using a cryostat, and the distribution of Tomato-positive cells was analyzed by confocal microscopy. […]

[4] = tested on: knee cartilage injury site; test: Knee cartilage defect model in wild-type mouse, safranin O staining; assay type: in vivo; details: wild-type mouse alone; 100 μg via tail vein twice a week until 4 weeks; 2, 4, 8 and 12 weeks; saline group only fibrous cartilage; FIG. 28
Experimental: A parabiosis model was created using a 6-week old male wild-type mouse and a 6-week old male P0-Cre::Rosa26-tdTomato mouse using the method described in 3. above. After completion of the blood chimera at 4 weeks after operation, a 0.5×0.5×0.5 mm cartilage defect was created in the knee joint of the wild-type mouse using a 0.5 mm-diameter hand-turned drill (manufactured by MEISINGER USA, L.L.C.). Shortly after the cartilage defect was created, 100 μg of HA1-44 peptide diluted with 100 μL of saline was administered from the tail vein and subsequently administered at the same dose twice a week until 4 weeks after operation. To the control group, 100 μL of saline was administered to each mouse from the tail vein on the same schedule as in the HA1-44 peptide administration group. A knee joint was collected 12 weeks after knee cartilage defect creation, then fixation with 4% paraformaldehyde (overnight), deashing with 0.5 M EDTA solution (3 days), and 30% sucrose replacement (1 day) were performed to create a frozen block. It was sliced at a thickness of 10 μm using a cryostat, and the distribution of Tomato-positive cells was analyzed by confocal microscopy. […]

[5] = tested on: Pα^lin+ cells in grafted skin; test: Parabiosis model (Pα-Cre::Rosa26-EYFP / wild-type) with epidermolysis bullosa mouse skin graft; assay type: in vivo; details: peptide given to the Pα-Cre::Rosa26-EYFP partner, epidermolysis bullosa skin grafted on the wild-type partner; FIG. 25
Description: as §1, §2

vertebral Pα cells = test: Transcriptome and IPA pathway analysis of vertebral Pα cells after administration; assay type: in vivo, mouse; details: compared to control group (saline)
Experimental: RNA was extracted from the cell population, and an RNA-seq library was created according to Smart-seq2 protocol (Nature Protocols 9, 171-181 (2014) doi: 10.1038/nprot.2014.006). The obtained library was sequenced with Nextseq 500 (Illumina, Inc.) using a nextseq high output kit (37 bp pair end reads). Using bcl2fastq v2.17.1.14 of Illumina, Inc. with default parameters and optional --no-lane-splitting, conversion of base calls to fastq format and demultiplex were performed. Reads were trimmed using TrimGalore (http://www.bioinformatics.babraham.ac.uk/projects/trim_galore/), and mapping and counting (quantification) were performed using RSEM (Li et al., BMC Bioinformatics 12, 323 (2011); version STAR-2.5.2b). Differential expression analysis among samples was performed using DESeq2 (Love et al., Genome Biol. 15, 550 (2014)). Differentially Expressed Genes (DEGs) were uploaded to the Ingenuity Pathway Analysis (IPA) software (https://www.qiagenbioinformatics.com) to extract the most relevant biological pathways and functions to DEGs. Clustering analysis was performed using ICGS algorithm of AltAnalyze_v.2.1.0-Py based on log 2 converted values of 1-added TPM (Transcripts Per kilobase Million) counts obtained with RSEM (log 2 (TPM+1)). […]

[6] = tested on: colony-forming Pα cells in peripheral blood; test: Colony assay of cultured peripheral blood after HA1-44 peptide administration; assay type: in vivo, mouse; details: FIG. 24
Experimental: The following method was used to recover cells from peripheral blood. Approximately 800 to 1000 μL of peripheral blood was collected from the heart under general anesthesia (using a 1 mL syringe containing heparin). To remove red blood cells, Hetasep (STEMCELL Technologies, Inc., Cat No. ST-07906) at equal amount of the collected blood was added, the mixture was centrifuged at 100 G for 2 minutes, and incubated at room temperature for 15 minutes, then the supernatant was recovered. The supernatant was subjected to the next experiment as a sample containing nuclear cells in peripheral blood.
The supernatant obtained by the above procedure (sample containing nucleated cells in peripheral blood) was seeded in a 6-well plate coated with collagen I (Corning Incorporated, Cat No. 356400), and cultured for 10 days under a condition of 37° C., 5% CO2, 5% 02 using a medium containing 1% L-glutamine (NACALAI TESQUE, INC.), 10 μM ROCK inhibitor (Y27632, Tocris Bioscience) and 1% penicillin/streptomycin (NACALAI TESQUE, INC.) in an expansion medium prepared using a MesenCult Expansion Kit (STEMCELL Technologies, Inc., Cat No. ST-05513) according to the manual of the kit (all concentrations described are final concentrations). The medium was replaced with a fresh medium twice a week during the culture period. […]

“HA1-44 peptide: peptide consisting of amino acid sequence of positions 1-44 (MGKGDPKKPRGKMSSYAFFVQTCREEHKKKHPDASVNFSEFSKK) at the N-terminus of A-box of HMGB1 protein” was tested, and the “CD45-negative, TER-119-negative, and PDGFRβ-positive cells in circulating blood” value [1] was “increase”, the “Pα^+ and Prx1^lin− cells in the skin graft” value [2] was “presence of Pα^+ and Prx1^lin− cells in the skin graft was confirmed” and the “accumulation of P0^lin+ cells at the cartilage injury site” value [3] was “accumulation of P0^lin+ cells was confirmed”. For the same substance, the “cartilage regeneration at the cartilage injury site” value [4] was “hyaline cartilage was regenerated”, the “Pα^lin+ cells expressing type 7 collagen in regenerated epithelial tissue of the skin graft” value [5] was “presence of Pα^lin+ cells expressing type 7 collagen was confirmed” and the “pathways associated with EIF2 signaling, regulation of eIF4 and p70S6K signaling, and mTOR signaling” value (vertebral Pα cells; FIG. 31) was “activated”. The “expression of cell death-related genes” value (vertebral Pα cells; FIG. 32) was “suppressed”, the “number of colonies obtained by culturing peripheral blood” value ([6]; lineage tracing mice, versus control group (saline administration)) was “more colonies than peripheral blood in the control group” and the “markers of the colonies obtained (Pα, Prx1 lineage)” value ([6]; peripheral blood of lineage tracing mice given the peptide) was “All of the colonies were Pα-positive, and the majority of which were Prx1 lineage-negative”.

Reference: patent US20260062677A1, “ECTODERMAL MESENCHYMAL STEM CELLS AND METHOD FOR PRODUCING SAME” (STEMRIM INC., priority 2017, published 2026)
